{"source": "patent EP0160115A1", "about": "“Growth stimulating food additive for animals” (SPOFA Spojené Podniky Pro Zdravotnickou Vyrobu, priority 1984, dated 1985)", "key": {"[1]": {"assay": "Weight gain of pre-fattening pigs on supplemented feed in a herd with bloody diarrhoea (14 days)", "type": "in vivo, Vormastschweine", "conditions": "100 ppm of each active in feed; for Gesamtzuwachs x̄ (kg): control 8,95; for Endgewicht x̄ (kg): control 59,43; for Tageszuwachs: control 639; for Zuwachsindex (%): control = 100", "from_the_text": "Die Versuche wurden in einem Schweinemastbetrieb durchgeführt, bei dem ständig bei 5 bis 15 der Vormastschweine (Rasse BU x PC + L) von etwa 50 kg Gewicht, die in Koben zu 10 bis 15 Tieren untergebracht waren, blutige Durchfälle auftraten. Histologisch und mikrobiologisch wurde als Erreger der Durchfallerkrankung Vibrio coli festgestellt.\n(§1) Die Versuchstiere wurden in 4 Gruppen aufgeteilt und während der gesamten Versuchsdauer von 14 Tagen mit dem Vormastschweine-Futtergemisch SOL unter folgender Wirkstoffzugabe behandelt: • Gruppe I (Kontrollgruppe): Futtergemisch allein Gruppe II: Phthalazol, 100 ppm • Gruppe III: Cyadox, 100 ppm • Gruppe IV: Cyadox und Phthalazol, je 100 ppm."}, "Vibrio coli": {"tested_on": "Vibrio coli", "assay": "Treatment of bloody diarrhoea in pre-fattening pigs via supplemented feed (14 days)", "type": "in vivo, Vormastschweine", "from_the_text": "Die Versuche wurden in einem Schweinemastbetrieb durchgeführt, bei dem ständig bei 5 bis 15 der Vormastschweine (Rasse BU x PC + L) von etwa 50 kg Gewicht, die in Koben zu 10 bis 15 Tieren untergebracht waren, blutige Durchfälle auftraten.\nas §1"}, "[2]": {"conditions": "Ratten, p.o.; cited from earlier work"}, "[3]": {"assay": "Fattening trial in early-weaned piglets with supplemented feed (4 weeks)", "type": "in vivo, Ferkel", "conditions": "28 days; for Zuwachsindex (%): 100 ppm of each active in feed; for Zuwachsindex (%) / Ausnutzungsindex (%): control = 100,0; for Ausnutzungsindex (%), difference from control (in brackets) / Ausnutzungsindex (%) / Futtermittel-Ausnutzung, x̄: 100 ppm of each active; for Futtermittel-Ausnutzung, x̄: feed consumption per unit of gain, control 2,0", "from_the_text": "Frühabgesetzte Ferkel (Mischlinge des weißen edlen Landschweinsx Landrasse), die innerhalb einer Zeitspanne von 6 Tagen geboren waren, wurden aus der Gebärstation am S. Tage nach dem Absetzen in die Versuchsanlage gebracht. Die Ferkel wurden in Gruppen von je 8 bis 12 Tieren in Boxen untergebracht, die mit Rostböden versehen und durch hölzerne Bodenplatten beheizt waren. Nach 7 Tagen Anpassungszeit wurde der eigentliche Mastversuch begonnen. Über die gesamte Versuchsdauer von 4 Wochen wurde in allen Gruppen das Futtergemishc ? OS 2 für früh abgesetzte Ferkel verfüttert, das durch Zusatz der entsprechenden Prämixe jeweils mit folgenden Wirkstoffen angereichert wurde: • Gruppe I (Kontrollgruppe): Futtergemisch allein ohne Zusatz • Gruppe II: Cyadox, 100 ppm (100 mg pro kg Futtergemisch) • Gruppe III: Roh-Tylo-sin, 100 ppm reine Tylosinbase • Gruppe IV : Cyadox und Roh-Tylosin, je 100 ppm.\nZu Beginn des Versuchs und am Versuchsende (28. Tag) wurden die Tiere individuell gewogen. Der Futterverbrauch pro Gruppe wurde täglich ermittelt und daraus die Futtermittelausnutzung, dh der Futterverbrauch pro Zuwachseinheit, berechnet. Ebenso wurde der Allgemeinzustand der Tiere täglich verfolgt."}, "[4]": {"conditions": "100 ppm of each active in feed, 14 days"}}}
{"smiles": "N#CCC(=O)NN=Cc1c[n+]([O-])c2ccccc2[n+]1[O-]", "note": "[Cyadox, 2-Formylchinoxalin-1,4-dioxy-cyanacetyl-hydrazon]", "values": [{"measurement": "Gesamtzuwachs x̄ (kg)", "setting": "[1]", "value": "10,10 kg"}, {"measurement": "Endgewicht x̄ (kg)", "setting": "[1]", "value": "57,90 kg"}, {"measurement": "Tageszuwachs", "setting": "[1]", "value": 721, "unit": "g"}, {"measurement": "Zuwachsindex (%)", "setting": "[1]", "value": "112,8%"}, {"measurement": "Anzeichen blutiger Durchfälle", "setting": "Vibrio coli; [4]", "value": "keine Anzeichen blutiger Durchfälle"}, {"measurement": "Heilungsgrad", "setting": "Vibrio coli; [4]", "value": 100}, {"measurement": "LD50", "setting": "[2]", "value": 15000, "unit": "mg/kg"}, {"measurement": "Zuwachsindex (%)", "setting": "[3]", "value": "109,8%"}, {"measurement": "Ausnutzungsindex (%), difference from control (in brackets)", "setting": "[3]", "value": "-0,5%"}, {"measurement": "Ausnutzungsindex (%)", "setting": "[3]", "value": "99,5%"}, {"measurement": "Futtermittel-Ausnutzung, x̄", "setting": "[3]", "value": "1,99"}]}
{"smiles": "O=C(O)c1ccccc1C(=O)Nc1ccc(S(=O)(=O)Nc2nccs2)cc1", "note": "[Phthalazol]", "values": [{"measurement": "Gesamtzuwachs x̄ (kg)", "setting": "[1]", "value": "8,99 kg"}, {"measurement": "Endgewicht x̄ (kg)", "setting": "[1]", "value": "59,61 kg"}, {"measurement": "Tageszuwachs", "setting": "[1]", "value": 642, "unit": "g"}, {"measurement": "Zuwachsindex (%)", "setting": "[1]", "value": "100,5%"}, {"measurement": "Schweine notgeschlachtet wegen unbefriedigenden Allgemeinzustands", "setting": "Vibrio coli; at end of trial, group of 20 pigs, 100 ppm", "value": 5}]}
{"smiles": "CC[C@H]1OC(=O)C[C@@H](O)[C@H](C)[C@@H](O[C@@H]2O[C@H](C)[C@@H](O[C@H]3C[C@@](C)(O)[C@@H](O)[C@H](C)O3)[C@H](N(C)C)[C@H]2O)[C@@H](CC=O)C[C@@H](C)C(=O)/C=C/C(C)=C/[C@@H]1CO[C@@H]1O[C@H](C)[C@@H](O)[C@@H](OC)[C@H]1OC", "note": "[Tylosin]", "values": [{"measurement": "Zuwachsindex (%)", "setting": "[3]", "value": "125,9%"}, {"measurement": "Ausnutzungsindex (%), difference from control (in brackets)", "setting": "[3]", "value": "-7,8%"}, {"measurement": "Ausnutzungsindex (%)", "setting": "[3]", "value": "92,2%"}, {"measurement": "Futtermittel-Ausnutzung, x̄", "setting": "[3]", "value": "1,90"}]}
